# Literature values in US20060088617A1, “Chocolate composition and method for benefiting the cardiovascular system” (priority 2004, published 2006).
# Tested on: blood vessel function
# Conditions: after consumption of flavonoid-rich dark chocolate
compound,measurement,value
Oc1cc(O)c2c(c1)O[C@H](c1ccc(O)c(O)c1)[C@H](O)C2 [epicatechin],absorption of epicatechin in the blood,absorbed at high levels in the blood
